Legend:
[1] = biological target: T1, human lysosomal β-glucosidase (GCase) (Homo sapiens, UniProt P04062); test: GCase inhibition in human leukocyte homogenates; assay type: biochemical; settings: human leukocytes extracts; for inhibition at 1000 µM / GCase Inhibition (%): compounds 1 mM; for IC50: 4-methylumbelliferyl-β-D-glucoside 3.33 mM
T1 construct: in leukocytes isolated from healthy donors (controls); endogenous in cells; host or cells: human leukocytes from healthy donors, disrupted by sonication (crude homogenate)
T1 sequence (P04062 40-536): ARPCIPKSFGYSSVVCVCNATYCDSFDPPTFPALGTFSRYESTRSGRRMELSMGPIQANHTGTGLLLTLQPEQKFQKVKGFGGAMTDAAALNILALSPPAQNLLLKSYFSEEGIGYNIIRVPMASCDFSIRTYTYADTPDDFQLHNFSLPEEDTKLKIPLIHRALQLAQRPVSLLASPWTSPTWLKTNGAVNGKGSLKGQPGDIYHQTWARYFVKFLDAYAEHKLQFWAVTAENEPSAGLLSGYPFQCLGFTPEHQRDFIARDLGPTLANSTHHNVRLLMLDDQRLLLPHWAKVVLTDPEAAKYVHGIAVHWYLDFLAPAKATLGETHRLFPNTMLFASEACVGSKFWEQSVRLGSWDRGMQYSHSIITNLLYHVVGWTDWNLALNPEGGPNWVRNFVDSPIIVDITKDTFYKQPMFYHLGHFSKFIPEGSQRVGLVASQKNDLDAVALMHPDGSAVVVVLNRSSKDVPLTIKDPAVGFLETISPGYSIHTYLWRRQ
Protocol: The new compounds were screened at 1 mM concentration towards β-galactosidase (β-Gal) and β-glucosidase (GCase) in leukocytes isolated from healthy donors (controls). Isolated leukocytes were disrupted by sonication, and a Micro BCA Protein Assay Kit (Sigma–Aldrich, St. Louis, MO, USA) was used to determine the total protein amount for the enzymatic assay, according to the manufacturer’s instructions.
GCase activity was measured in a flat-bottomed 96-well plate. Compound solution (3 µL), 4.29 µg/µL leukocytes homogenate (7 µL), and substrate 4-methylumbelliferyl-β-D-glucoside (3.33 mM, 20 µL, Sigma–Aldrich Chemie Gmbh, Munich, Germany)) in citrate/phosphate buffer (0.1:0.2, M/M, pH 5.8) containing sodium taurocholate (0.3%) and Triton X-100 (0.15%) at 37 °C were incubated for 1 h. The reaction was stopped by addition of sodium carbonate (200 µL; 0.5 M, pH 10.7) containing Triton X-100 (0.0025%), and the fluorescence of 4-methylumbelliferone released by β-glucosidase activity was measured in SpectraMax M2 Microplate Reader (λex = 365 nm and λem = 435 nm; Molecular Devices LLC, San Jose, CA, US). Percentage GCase inhibition is given with respect to the control (without compound). Data are mean SD (n = 3). For compounds showing GCase inhibitory activity higher than 80% at 1 mM concentration, the IC50 values were determined by measuring the initial hydrolysis rate with 4-methylumbelliferyl-β-D-glucoside (3.33 mM). Data obtained were fitted by using the appropriate equation (for more details, see the Supplementary Materials).
IC50 for compounds 9, 10, 12 and 21 towards human lysosomal β-glucosidase The IC50 values of inhibitors against β-glucosidase were determined by measuring the initial hydrolysis rate with 4-methylumbelliferyl-β-D-glucoside (3.33 mM). Data obtained were fitted to the following equation using the Origin Microcal program. where Vi/Vo, represent the ratio between the activity measured in the presence of the inhibitor (Vi) and the activity of the control without the inhibitor (V0), “x” the inhibitor concentration, Max and Min, the maximal and minimal enzymatic activity observed, respectively.
Figure S48: IC of compound 9 towards GCase
Figure S49: IC50 of compound 10 towards GCase
(also on this page, place not known: Min x MinMax Vo Vi slope + […] […] […] […] […] […]+ −= 1 be tween (V i) (V 0), IC50) […]

[2] = system: β-glucosidase EC 3.2.1.21; test: Commercial glycosidase screening; assay type: biochemical, almonds; settings: for % Inhibition at 0.1 mM, β-glucosidase almonds: 0.1 mM inhibitor
From the text: A panel of 12 commercial glycosidases (α-L-fucosidase EC 3.2.1.51 from Homo sapiens, α-galactosidase EC 3.2.1.22 from coffee beans, β-galactosidases EC 3.2.1.23 from Escherichia coli and Aspergillus oryzae, α-glucosidases EC 3.2.1.20 from yeast and rice, amyloglucosidase EC 3.2.1.3 from Aspergillus niger, β-glucosidase EC 3.2.1.21 from almonds, α-mannosidase EC 3.2.1.24 from Jack beans, β-mannosidase EC 3.2.1.25 from snail, β-N-acetylglucosaminidases EC 3.2.1.52 from Jack beans and bovine kidney) purchased from Sigma-Aldrich (St. Louis, MO, USA) or Megazyme Ltd. (Bray, Co. Wicklow, Ireland) was screened.
The percentage (%) of inhibition towards the corresponding glycosidase was determined in quadruplicate in the presence of 100 μM of the inhibitor on the well. Each enzymatic assay (final volume 0.12 mL) contains 0.01–0.5 units/mL of the enzyme (with previous calibration) and 4.2 mM aqueous solution of the appropriate p-nitrophenyl glycopyranoside (substrate) buffered to the optimal pH of the enzyme. Enzyme and inhibitor were preincubated for 5 min at room temperature, and the reaction started by addition of the substrate. After 20 min of incubation at 37 °C, the reaction was stopped by the addition of 0.1 mL of sodium borate solution (pH 9.8). The p-nitrophenolate formed was measured by visible absorption spectroscopy at 405 nm (Asys Expert 96 spectrophotometer, Biochrom Ltd., Cambridge, England). Under these conditions, the p-nitrophenolate released led to optical densities linear with both reaction time and concentration of the enzyme (for more details, see the Supplementary Materials). The IC50 value (concentration of inhibitor required for 50% inhibition of enzyme activity) was determined from plots of % inhibition vs. different inhibitor concentrations. Each point of the graph is the average of four measures. The standard deviation for each point has been also represented in the graph.

GCase Inhibition (%) ([1]; listed as C00009) | SMILES | inhibition at 1000 µM [1] [%] | IC50 [1] [µM] | GCase Inhibition (%) ([1]; listed as C00010) | % Inhibition at 0.1 mM, β-glucosidase almonds [2] | IC50 ([2]; read-out: IC50 (β-glucosidase from almonds)) [µM] | GCase Inhibition (%) ([1]; listed as C00012) | GCase Inhibition (%) ([1]; listed as C00016)
98 | CCCCCCCCCO[C@H]1CNC[C@@H](O)[C@H]1O [compound 9, (3S, 4R, 5R)-4,5-Dihydroxy-3-(Nonyloxy) Piperidine] | > 90 | 12 ± 6 | – | – | – | – | –
– | CCCCCCCCCCCCN[C@H]1CNC[C@@H](O)[C@H]1O [compound 10, (3R, 4S, 5S)-3,4-Dihydroxy-5-(Dodecylamino) Piperidine] | > 90 | 6.4 ± 0.7 | 100 | 51±1% | 85 | – | –
– | CCCCCCCC[C@]1(O)CNC[C@@H](O)[C@H]1O [compound 12, (3S, 4R, 5R)-3,4,5-Trihydroxy-3-Octyl-Piperidine] | > 90 | 60 ± 23 | – | - (no inhibition detected) | – | 93 | –
– | CCCCCCCCCO[C@@H]1CNC[C@@H](O)[C@H]1O [compound 21, (3R, 4R, 5R)-4,5-Dihydroxy-3-(Nonyloxy) Piperidine] | > 90 | 130 ± 13 | – | - (no inhibition detected) | – | – | 100
